The LD50 is the dose expected to kill half of the subjects tested. The low end stands for a more toxic substance, the high end for a less toxic substance.

Structures can show the parent of a compound that is named as a salt.

Here are results for six compounds from patent US4532367A, “Antimicrobially effective derivatives of phenol and methods for their production” (VEB Jenapharm, priority 1981, dated 1985).

Series [1] deals with Gram-Positive Bacteria. As to the kind of experiment: Effectiveness against gram-positive bacteria (general statement). The class given is cell-based. Particulars: in words.
Series [2] in a line: Solubility in water. The class given is physicochemical. Particulars: in words.
Series [3] in a line: Stability. The class given is physicochemical. The note with it: in words.
Series [4] can be described thus: Acute toxicity in white mice with subcutaneous application. Particulars: mouse, in vivo, sc. An excerpt: *The toxicity in mg/kg body weight is understood as acute toxicity in
white mice with subcutaneous application.

Series [5] deals with antimicrobial. Particulars: known compound, background statement; cited from earlier work.
For series [6] the following is noted: known compound, background statement; cited from earlier work.
The conditions of series [7]: known compound, background statement; cited from earlier work. This is another data set of the same source.

Turning to `Cc1cc(Cc2ccccc2)cc(Cl)c1O` [calcium salt of 2-chloro-6-methyl-4-benzylphenol] [calcium salt of 6-chloro-2-methyl-4-benzylphenol], in series [1], the “effectiveness against gram-positive bacteria” value was “particularly effective”. Further, the solubility in water result in series [2] is “only little soluble in water”. The stability entry in series [3] is reported as “very stable”.
Take `Cc1cc(Cc2ccccc2)cc(Cl)c1O` [potassium salt of 6-chloro-2-methyl-4-benzylphenol]: the solubility in water entry in series [2] was “good”.
In turn, `Cc1cc(Cc2ccccc2)cc(Cl)c1O` [2-chloro-6-methyl-4-benzylphenol] showed a median lethal dose (LD50) in series [4] of 1200 mg/kg. Also, in series [5], the antimicrobial efficacy result was “generally good antimicrobial efficacy”. The skin compatibility entry in series [6] was “well skin-compatible”. Besides, the water-solubility entry in series [7] is reported as “difficult water-solubility”.
For the compound `Cc1cc(Cc2ccccc2)cc(Br)c1O` [2-bromo-6-methyl-4-benzylphenol, 6-bromo-2-methyl-4-benzylphenol], the LD50 in series [4] is 1500 mg/kg.
As to `Cc1cc(Cc2ccccc2)cc(Cl)c1O` [sodium salt of 6-chloro-2-methyl-4-benzylphenol], the solubility in water entry in series [2] is “well water-soluble”.
In turn, `CCc1cc(Cc2ccccc2)cc(Br)c1O` [2-bromo-6-ethyl-4-benzylphenol, 6-bromo-2-ethyl-4-benzylphenol] showed a 50% lethal dose (LD50) in series [4] of 2800 mg/kg.
